According to patent US20230416676A1, “Method for Reprogramming Cell” (Celpaten Consulting Partnership (Limited Partnership), priority 2020, published 2023):

tested on: Wnt1-tdTomato- MEFs; test: Conversion of MEFs into ciNCCs with M6 medium (Wnt1-tdTomato lineage tracing); assay type: cell-based, mouse; conditions: added to Chir99021, SB431542 and forskolin (FIG. 8C)
Protocol: The basal medium contained knockout DMEM (Gibco), 10% KSR (Gibco), 10% FBS (Gibco), 1% NEAA (Gibco), and 0.1 mM 2-mercaptoethanol (Gibco) supplemented with the small molecules CHIR99021 (3 μM), SB431542 (5 μM), Forskolin (10 μM), VPA ([…]), EPZ004777 (5 μM), and 5-Aza-dC (0.5 μM). The medium was shaken for 30 min to ensure that all components were fully dissolved.
The MEFs were plated at 5×10^4 cells per well on six-well tissue culture plates in fibroblast medium. The culture plates were precoated with fibronectin or laminin for more than 2 hours. After overnight culture, the medium was exchanged with M6 chemical medium, which was refreshed every 2 days. NCC-like cells appeared and increased at days 3 to 5. After 7 to 10 days of induction, FACS was performed to collect Wnt1^+ cells.
For corneal endothelium is derived from NCCs, a two-step method for reprogramming mouse fibroblasts into CEC-like cells using small molecules was designed, in which the first step was to guide mouse embryonic fibroblasts (MEFs) to be chemically reprogrammed into ciNCCs. To identify small molecules with the potential to convert fibroblasts into ciNCCs, we used a lineage tracing strategy to trace the conversion process and excluded any NCCs or progenitor cells from the starting MEFs (FIGS. 8A and 15A). Wnt1-Cre transgenic mice have been validated as a lineage-tracing reporter model for NCC development. In Wnt1-Cre/ROSA26tdTomato mice, tdTomato protein was faithfully expressed in NCCs. MEFs were thus isolated from Wnt1-Cre/ROSA26tdTomato mice at embryonic day 13.5 (E13.5). Because the NCC population was marked with tdTomato, we performed fluorescence-activated cell sorting (FACS) to collect the tdTomato^− population to exclude any NCCs or progenitors (the purified cells are hereinafter referred to as Wnt1-tdTomato-MEFs; FIG. 15B). We confirmed that the Wnt1-tdTomato^− MEFs were also negative for other NCC markers, including Sox10, P75, Pax3, HNK1, and AP2α (FIGS. 15C and 15D). Further, these Wnt1-tdTomato^− MEFs were negative for typical NSC markers, including Sox2, Pax6 and Nestin (data not shown). […]

Row | SMILES | effect of individual chemical on induction of Wnt1-tdTomato+ cells
1 | Nc1ncn([C@H]2C[C@H](O)[C@@H](CO)O2)c(=O)n1 [5-Aza-dC] | further promoted induction of Wnt1-tdTomato^+ cells
2 | CC(C)N(CCCNC(=O)Nc1ccc(C(C)(C)C)cc1)C[C@H]1O[C@@H](n2ccc3c(N)ncnc32)[C@H](O)[C@@H]1O [EPZ004777] | further promoted induction of Wnt1-tdTomato^+ cells
3 | CCCC(CCC)C(=O)O [VPA, Valproic acid] | further promoted induction of Wnt1-tdTomato^+ cells
